Experimental data from ChEMBL document CHEMBL4842377, “Synthesis and biological evaluation of selective histone deacetylase 6 inhibitors as multifunctional agents against Alzheimer's disease” (Eur J Med Chem, 2021).
Values belong to the compound of their own block, whether it stands above or below them.

What was measured:
[1] = target: T1, Protein deacetylase HDAC6 (Homo sapiens, UniProt Q9UBN7); assay: Inhibition of human HDAC6 using fluorogenic substrate incubated for 1 hrs by fluorescence plate reader assay
T1 sequence (Q9UBN7 whole entry): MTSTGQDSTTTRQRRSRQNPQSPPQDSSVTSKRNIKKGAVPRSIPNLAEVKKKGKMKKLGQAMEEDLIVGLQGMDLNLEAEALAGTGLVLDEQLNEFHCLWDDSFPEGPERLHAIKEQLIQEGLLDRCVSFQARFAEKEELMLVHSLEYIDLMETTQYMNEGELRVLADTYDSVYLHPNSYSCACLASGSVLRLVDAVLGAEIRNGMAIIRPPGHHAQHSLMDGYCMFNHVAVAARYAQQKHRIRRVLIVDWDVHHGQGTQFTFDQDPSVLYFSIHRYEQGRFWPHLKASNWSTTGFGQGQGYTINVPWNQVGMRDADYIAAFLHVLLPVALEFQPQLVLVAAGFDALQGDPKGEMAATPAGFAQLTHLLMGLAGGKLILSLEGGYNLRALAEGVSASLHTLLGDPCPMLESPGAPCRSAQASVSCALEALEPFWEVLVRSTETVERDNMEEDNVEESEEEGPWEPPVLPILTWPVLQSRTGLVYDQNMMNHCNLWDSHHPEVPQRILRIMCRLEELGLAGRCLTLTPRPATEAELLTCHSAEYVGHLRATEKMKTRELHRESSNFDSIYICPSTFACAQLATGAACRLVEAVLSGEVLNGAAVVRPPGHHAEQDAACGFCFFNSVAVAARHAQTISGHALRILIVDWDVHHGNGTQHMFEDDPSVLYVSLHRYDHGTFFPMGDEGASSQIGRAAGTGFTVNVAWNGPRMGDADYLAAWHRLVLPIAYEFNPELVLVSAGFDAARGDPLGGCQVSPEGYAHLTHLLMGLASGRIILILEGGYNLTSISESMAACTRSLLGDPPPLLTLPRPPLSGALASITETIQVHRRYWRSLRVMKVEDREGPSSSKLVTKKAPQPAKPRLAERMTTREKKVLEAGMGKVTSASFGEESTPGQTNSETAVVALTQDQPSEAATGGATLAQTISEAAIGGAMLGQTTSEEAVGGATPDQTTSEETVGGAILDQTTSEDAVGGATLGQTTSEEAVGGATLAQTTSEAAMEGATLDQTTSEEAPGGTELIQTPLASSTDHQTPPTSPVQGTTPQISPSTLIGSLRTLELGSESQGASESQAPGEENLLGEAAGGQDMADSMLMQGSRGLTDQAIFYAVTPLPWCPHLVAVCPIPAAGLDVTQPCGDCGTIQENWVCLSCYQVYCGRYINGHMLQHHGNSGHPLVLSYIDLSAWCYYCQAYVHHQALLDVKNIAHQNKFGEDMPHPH

SH-SY5Y [2] = assay: Induction of neurogenesis in human SH-SY5Y cells assessed as induction of MAP2 mRNA expression at 10 uM measured after 24 hrs by RT-PCR analysis relative to control; type: functional
SH-SY5Y [3] = assay: Induction of neurogenesis in human SH-SY5Y cells assessed as induction of N-myc mRNA expression at 10 uM measured after 24 hrs by RT-PCR analysis relative to control; type: functional
SH-SY5Y [4] = assay: Induction of neurogenesis in human SH-SY5Y cells assessed as induction of GAP-43 mRNA expression at 10 uM measured after 24 hrs by RT-PCR analysis relative to control; type: functional
SH-SY5Y [5] = assay: Induction of neurogenesis in human SH-SY5Y cells assessed as fold induction of MAP2 mRNA expression at 10 uM measured after 24 hrs by RT-PCR analysis relative to retinoic acid; type: functional
SH-SY5Y [6] = assay: Neuroprotective activity against Cu2+/amyloid beta (1 to 42)-induced toxicity in human SH-SY5Y cells assessed as increase in cell viability at 3 uM after 24 hrs by MTT assay (reference value: 47.2%); type: functional
SH-SY5Y [7] = assay: Induction of neurogenesis in human SH-SY5Y cells assessed as fold induction of GAP-43 mRNA expression at 10 uM measured after 24 hrs by RT-PCR analysis relative to retinoic acid; type: functional
SH-SY5Y [8] = assay: Induction of neurogenesis in human SH-SY5Y cells assessed as fold induction of N-myc mRNA expression at 10 uM measured after 24 hrs by RT-PCR analysis relative to retinoic acid; type: functional
SH-SY5Y [9] = assay: Cytotoxicity against human SH-SY5Y cells assessed as cell viability incubated for 24 hrs by MTT assay; type: cell-based
Histone deacetylase 8 = target: T2, Histone deacetylase 8 (Homo sapiens, UniProt Q9BY41); assay: Inhibition of human HDAC8 using fluorogenic substrate incubated for 1 hrs by fluorescence plate reader assay
T2 sequence (Q9BY41 whole entry): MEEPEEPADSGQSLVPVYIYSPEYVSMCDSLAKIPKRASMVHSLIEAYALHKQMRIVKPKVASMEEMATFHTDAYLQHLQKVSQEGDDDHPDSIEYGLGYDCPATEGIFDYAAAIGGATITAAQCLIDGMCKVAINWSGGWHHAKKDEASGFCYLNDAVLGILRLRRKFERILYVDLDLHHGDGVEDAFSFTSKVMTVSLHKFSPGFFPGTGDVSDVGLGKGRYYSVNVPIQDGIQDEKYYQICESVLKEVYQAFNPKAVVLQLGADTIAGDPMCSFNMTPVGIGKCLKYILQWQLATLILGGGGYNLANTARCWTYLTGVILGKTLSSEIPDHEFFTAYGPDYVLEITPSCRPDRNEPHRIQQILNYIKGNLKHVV

[10] = target: T3, Polyamine deacetylase HDAC10 (Homo sapiens, UniProt Q969S8); assay: Inhibition of human HDAC10 using fluorogenic substrate incubated for 1 hrs by fluorescence plate reader assay
T3 sequence (Q969S8 whole entry): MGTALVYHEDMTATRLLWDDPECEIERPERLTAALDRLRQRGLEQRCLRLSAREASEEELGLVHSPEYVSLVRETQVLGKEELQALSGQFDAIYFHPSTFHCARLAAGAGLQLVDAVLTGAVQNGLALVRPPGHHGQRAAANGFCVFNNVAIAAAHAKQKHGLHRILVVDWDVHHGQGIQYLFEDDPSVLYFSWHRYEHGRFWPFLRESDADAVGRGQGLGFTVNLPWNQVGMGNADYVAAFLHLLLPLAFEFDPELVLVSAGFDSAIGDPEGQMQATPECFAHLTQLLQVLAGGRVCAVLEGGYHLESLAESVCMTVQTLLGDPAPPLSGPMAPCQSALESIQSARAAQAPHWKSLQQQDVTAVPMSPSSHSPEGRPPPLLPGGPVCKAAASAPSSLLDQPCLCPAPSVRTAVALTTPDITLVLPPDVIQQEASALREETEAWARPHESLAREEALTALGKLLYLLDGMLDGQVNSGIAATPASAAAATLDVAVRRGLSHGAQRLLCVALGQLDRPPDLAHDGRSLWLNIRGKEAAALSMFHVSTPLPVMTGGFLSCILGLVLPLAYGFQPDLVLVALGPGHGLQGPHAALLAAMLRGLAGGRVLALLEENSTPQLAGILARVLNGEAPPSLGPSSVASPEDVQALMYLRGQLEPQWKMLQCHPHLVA

Histone deacetylase 2 = Histone deacetylase 2 (Homo sapiens, UniProt Q92769); assay: Inhibition of human HDAC2 using fluorogenic substrate incubated for 1 hrs by fluorescence plate reader assay
Sequence of Histone deacetylase 2 (Q92769 whole entry): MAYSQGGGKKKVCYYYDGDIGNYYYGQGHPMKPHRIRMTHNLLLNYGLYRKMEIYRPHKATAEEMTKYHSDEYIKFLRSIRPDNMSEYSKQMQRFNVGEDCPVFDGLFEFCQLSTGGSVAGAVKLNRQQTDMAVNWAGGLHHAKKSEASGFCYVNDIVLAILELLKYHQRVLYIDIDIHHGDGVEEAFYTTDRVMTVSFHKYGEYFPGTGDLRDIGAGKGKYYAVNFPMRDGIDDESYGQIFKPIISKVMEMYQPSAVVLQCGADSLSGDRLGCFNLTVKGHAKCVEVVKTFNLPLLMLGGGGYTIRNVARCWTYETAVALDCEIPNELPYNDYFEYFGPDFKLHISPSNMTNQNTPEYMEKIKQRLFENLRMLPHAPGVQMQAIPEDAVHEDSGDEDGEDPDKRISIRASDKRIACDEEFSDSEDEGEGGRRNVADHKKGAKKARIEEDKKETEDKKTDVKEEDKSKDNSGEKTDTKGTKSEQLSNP

Histone deacetylase 1 = Histone deacetylase 1 (Homo sapiens, UniProt Q13547); assay: Inhibition of human HDAC1 using fluorogenic substrate incubated for 1 hrs by fluorescence plate reader assay
Sequence of Histone deacetylase 1 (Q13547 whole entry): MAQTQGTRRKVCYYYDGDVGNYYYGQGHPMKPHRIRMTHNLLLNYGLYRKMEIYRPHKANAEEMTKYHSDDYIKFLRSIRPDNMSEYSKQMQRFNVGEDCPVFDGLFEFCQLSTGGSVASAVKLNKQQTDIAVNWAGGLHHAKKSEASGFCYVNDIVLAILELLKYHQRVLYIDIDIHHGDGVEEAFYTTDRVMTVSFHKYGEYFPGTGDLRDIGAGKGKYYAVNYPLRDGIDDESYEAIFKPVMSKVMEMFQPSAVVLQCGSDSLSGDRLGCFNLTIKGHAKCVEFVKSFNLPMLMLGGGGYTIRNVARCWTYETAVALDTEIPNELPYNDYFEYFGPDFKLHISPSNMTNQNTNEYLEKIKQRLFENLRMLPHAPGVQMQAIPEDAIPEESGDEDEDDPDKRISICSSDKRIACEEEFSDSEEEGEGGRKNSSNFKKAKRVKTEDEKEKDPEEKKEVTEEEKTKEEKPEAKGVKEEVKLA

Histone deacetylase 11 = target: T4, Histone deacetylase 11 (Homo sapiens, UniProt Q96DB2); assay: Inhibition of human HDAC11 using fluorogenic substrate incubated for 1 hrs by fluorescence plate reader assay
T4 sequence (Q96DB2 whole entry): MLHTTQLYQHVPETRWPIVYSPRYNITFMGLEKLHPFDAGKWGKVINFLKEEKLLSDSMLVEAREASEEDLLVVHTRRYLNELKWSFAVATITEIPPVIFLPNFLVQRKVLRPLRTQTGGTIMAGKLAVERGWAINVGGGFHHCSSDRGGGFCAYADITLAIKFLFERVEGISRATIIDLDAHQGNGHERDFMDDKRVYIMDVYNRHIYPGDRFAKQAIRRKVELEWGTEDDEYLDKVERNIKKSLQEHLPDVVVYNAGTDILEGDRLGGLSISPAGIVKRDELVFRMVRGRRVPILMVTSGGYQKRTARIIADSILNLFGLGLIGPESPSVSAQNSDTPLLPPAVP

Histone deacetylase 4 = Histone deacetylase 4 (Homo sapiens, UniProt P56524); assay: Inhibition of human HDAC4 using fluorogenic substrate incubated for 1 hrs by fluorescence plate reader assay
Sequence of Histone deacetylase 4 (P56524 whole entry): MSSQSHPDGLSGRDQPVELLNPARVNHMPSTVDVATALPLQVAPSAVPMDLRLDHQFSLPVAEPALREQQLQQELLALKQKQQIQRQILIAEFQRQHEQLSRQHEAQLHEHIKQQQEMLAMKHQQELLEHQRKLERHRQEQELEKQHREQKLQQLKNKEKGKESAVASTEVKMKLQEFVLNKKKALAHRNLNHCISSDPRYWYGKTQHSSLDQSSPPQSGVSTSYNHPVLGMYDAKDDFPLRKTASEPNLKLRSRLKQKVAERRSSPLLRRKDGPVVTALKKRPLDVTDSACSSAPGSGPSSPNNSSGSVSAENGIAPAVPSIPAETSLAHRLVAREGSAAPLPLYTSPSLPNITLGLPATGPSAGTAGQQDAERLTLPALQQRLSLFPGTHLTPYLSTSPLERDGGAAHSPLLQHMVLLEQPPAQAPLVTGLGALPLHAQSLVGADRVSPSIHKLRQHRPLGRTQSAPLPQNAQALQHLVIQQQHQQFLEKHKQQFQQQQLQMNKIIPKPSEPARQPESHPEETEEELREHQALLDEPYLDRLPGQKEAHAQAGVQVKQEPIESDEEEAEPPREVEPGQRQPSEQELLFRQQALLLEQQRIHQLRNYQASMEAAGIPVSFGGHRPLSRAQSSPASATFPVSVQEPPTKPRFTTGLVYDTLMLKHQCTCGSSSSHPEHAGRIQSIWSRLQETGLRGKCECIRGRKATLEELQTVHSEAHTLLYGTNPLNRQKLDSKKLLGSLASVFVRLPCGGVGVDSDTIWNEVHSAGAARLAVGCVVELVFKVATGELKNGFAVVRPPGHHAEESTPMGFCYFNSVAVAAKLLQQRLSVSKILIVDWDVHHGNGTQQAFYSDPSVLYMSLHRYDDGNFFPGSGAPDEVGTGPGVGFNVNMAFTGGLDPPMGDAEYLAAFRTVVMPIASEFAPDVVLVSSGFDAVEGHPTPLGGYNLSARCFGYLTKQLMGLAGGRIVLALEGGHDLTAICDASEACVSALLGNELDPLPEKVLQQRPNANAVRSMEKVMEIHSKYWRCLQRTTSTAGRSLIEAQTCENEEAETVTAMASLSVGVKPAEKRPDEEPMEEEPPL

SH-SY5Y [11] = assay: Neuroprotective activity against amyloid beta (1 to 42)-induced cytotoxicity in human SH-SY5Y cells assessed as increase in cell viability at 3 uM after 24 hrs by MTT assay (reference value: 60.4%); type: functional

Structure (SMILES): C[C@]12CC3CC(NCc4ccc(C(=O)NO)cn4)(C1)C[C@@](C)(C3)C2
- IC50 [1]: 537 nM

Structure (SMILES): CC1=C(/C=C/C(C)=C/C=C/C(C)=C/C(=O)O)C(C)(C)CCC1 [TRETINOIN]
- Activity (SH-SY5Y [2]): 2.13
- Activity (SH-SY5Y [3]): 2.3
- Activity (SH-SY5Y [4]): 2.07

Structure (SMILES): Cl.O=C(NO)c1ccc(CN2c3ccccc3Sc3ccccc32)nc1
- Activity (SH-SY5Y [2]): 4.79
- fold change (FC) (SH-SY5Y [5]): 2
- Activity (SH-SY5Y [6]): 82%
- fold change (FC) (SH-SY5Y [7]): 2
- fold change (FC) (SH-SY5Y [8]): 2
- IC50 (SH-SY5Y [9]): 115000 nM
- IC50 (Histone deacetylase 8): 6120 nM
- IC50 [10]: 8630 nM
- IC50 (Histone deacetylase 2): 1960 nM
- IC50 (Histone deacetylase 1): 743 nM
- IC50 [1]: 2.54 nM
- IC50 (Histone deacetylase 11): 4300 nM
- Activity (SH-SY5Y [3]): 6.28
- IC50 (Histone deacetylase 4): 5630 nM
- Activity (SH-SY5Y [11]): 76.3%
- Activity (SH-SY5Y [4]): 5.71

Structure (SMILES): CCNC(=O)c1ccc(CN2c3ccccc3Sc3ccccc32)nc1
- IC50 [1]: > 1000 nM

Structure (SMILES): CNC(=O)Cn1cc(CN2c3ccccc3Sc3ccccc32)cn1
- IC50 [1]: > 1000 nM

The remaining lines, values ahead:

- IC50 [1]: > 1000 nM
Structure (SMILES): CNC(=O)c1ccc(CN2c3ccccc3Sc3ccccc32)nc1

- IC50 [1]: 11 nM
Structure (SMILES): O=C(NO)c1ccc(CN2c3ccccc3Sc3ccccc32)nc1

- IC50 [1]: 343 nM
Structure (SMILES): O=C(CCc1ccc(CN2c3ccccc3Sc3ccccc32)cc1)NO

- IC50 [1]: > 1000 nM
Structure (SMILES): O=C(Cn1cc(CN2c3ccccc3Sc3ccccc32)cn1)NO

- IC50 [1]: 884 nM
Structure (SMILES): O=C(NO)c1coc(CN2c3ccccc3Sc3ccccc32)n1
